# Patent US11827628B2, “Compositions and methods for inhibition of the JAK pathway” (Rigel Pharmaceuticals, Inc., priority 2005, dated 2023)
# Counter-ions that a name gives are not always drawn. Like-named read-outs stand apart in the source and are kept apart here.
# Legend:
# Type in all cases: cell-based
# [1] = system: up-regulation of ICAM-1 (CD54) by IFNγ in U937 human monocytic cells; experiment: U937 IFNγ ICAM1 FACS Assay; details: ICAM-1 expression by FACS, read-out: IC50, Example 44
# Source text: The activity of the compounds of the invention may additionally be characterized by assaying the effect of the 2,4-substituted pyrimidinediamine compounds described herein on A549 lung epithelial cells and U937 cells. A549 lung epithelial cells and U937 cells up-regulate ICAM-1 (CD54) surface expression in response to a variety of different stimuli. Therefore, using ICAM-1 expression as readout, test compound effects on different signaling pathways can be assessed in the same cell type. Stimulation with IL-1β through the IL-1β receptor activates the TRAF6/NFκB pathway resulting in up-regulation of ICAM-1. IFNγ induces ICAM-1 up-regulation through activation of the JAK1/JAK2 pathway. The up-regulation of ICAM-1 can be quantified by flow cytometry across a compound dose curve and EC50, values are calculated.
# U937 human monocytic cells up-regulate ICAM-1 (CD54) surface expression in response to a variety of different stimuli. Therefore, using ICAM-1 expression as readout, compound effects on different signaling pathways can be assessed in the same cell type. IFNγ up-regulates ICAM-1 through activation of the JAK/Stat pathway. In this example, the up-regulation of ICAM-1 by IFNγ was assessed.
# The U937 human monocytic cell line was obtained from ATCC of Rockville Maryland, catalog number CRL-1593.2, and cultured in RPM1-1640 medium containing 10% (v/v) FCS. U937 cells were grown in 10% RPMI. The cells were then plated at a concentration of 100,000 cells per 160 μL in 96 well flat bottom plates. […] Then 4 μL of test compound was transferred to 76 μL of 10% RPMI resulting in a 10× solution (100 μM test compound, 5% DMSO). For control wells, 4 μL of DMSO was diluted into 76 μL 10% RPMI.
# The assay was performed in duplicate with 8 points (8 3-fold dilution concentrations from […]) and with 4 wells of DMSO only (control wells) under stimulated conditions and 4 wells of DMSO only under unstimulated conditions.
# The diluted compound plate was mixed 2× using a multimek (Beckman Coulter of Brea, California) and then 20 μL of the diluted compounds was transferred to the 96 well plate containing 160 μL of cells, which were then mixed again twice at low speeds. The cells and compounds were then pre-incubated for 30 minutes at 37° C. with 5% CO2.
# The 10× stimulation mix was made by preparing a 100 ng/mL solution of human IFNγ in 10% RPMI. […] The cells were kept under conditions for stimulation for 18-24 hours at 37° C. with 5% CO2.
# The cells were transferred to a 96 well round bottom plate for staining and then kept on ice for the duration of the staining procedure. Cells were spun down at 1000 rpm for 5 minutes at 4° C., following which the supernatant was removed. Following removal of the supernatant, 1 μL APC conjugated mouse anti-human ICAM-1 antibody was added per 100 μL FACS buffer. The cells were then incubated on ice in the dark for 30 minutes. Following incubation, […] of FACS buffer was added and the cells were centrifuged at 1000 rpm for 5 minutes at 4° C., following which the supernatant was removed. After removal of the supernatant, 200 μL of FACS buffer was added and the cells were resuspended. After suspension, the cells were centrifuged at 1000 rpm for 5 min at 4° C. Supernatant was then removed prior to resuspension of the cells in 150 μL FACS buffer.
# Detection was performed using a BD LSR I System Flow Cytometer, purchased from BD Biosciences of San Jose, California The live cells were gated for live scatter and the geometric mean of ICAM-APC was measured (Becton-Dickinson CellQuest software version 3.3, Franklin Lakes, NJ). Both % live cells and ICAM-1 expression was analyzed. The assays for the test compounds were carried out in parallel with a control compound of known activity.
# [2] = system: IL-4 stimulated expression of CD23 in human Ramos B cells (JAK-1 and JAK-3); experiment: Assay for Ramos B-Cell Line Stimulated with IL-4 (CD23 upregulation, FACS); details: read-out: IC50, Example 41
# Method in brief: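 Log-phase Ramos cells, 1 h compound pre-incubation at 37 °C; IL-4 50 units/mL final, 20-24 h; CD23-PE stain, FACS; IC50.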
# [3] = system: Primary human T-cells; experiment: Primary Human T-Cell Proliferation Assay Stimulated with IL-2 (CellTiter-Glo); details: read-out: IC50, Example 42
# Method in brief: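 IC50 derived from CellTiter-Glo ATP signal after 72 hours of IL-2-driven proliferation at 37° C. Cells: primary human T-cells from blood, stimulated beforehand 3-4 days on anti-CD3/anti-CD28 with IL-2, then rested from IL-2 before compound exposure in duplicate; IL-2-free wells served as unstimulated control.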
# [4] = U937 cells stimulated with IFNγ
# [5] = Ramos B-cell line stimulated with IL-4, CD23 expression by FACS
# [6] = Ramos B cells stimulated with IL-4, CD23 expression by FACS
# [7] = Homo sapiens, Ramos, Ramos B-cell line stimulated with IL-4, CD23 expression by FACS
# [8] = Homo sapiens, T-cell, primary human T-cell proliferation stimulated with IL-2
# [9] = primary human T-cells stimulated with IL-2, proliferation
# [10] = Homo sapiens, T-cell, primary human T-cells stimulated with IL-2, proliferation
# [11] = Homo sapiens, Ramos, Ramos B cells stimulated with IL-4, CD23 expression by FACS
smiles,measurement,setting,value
"CCC(=O)NCc1ccc(Nc2nc(Nc3ccc(C)c(S(N)(=O)=O)c3)ncc2F)cc1 [III-37, N2-(3-aminosulfonyl-4-methyl)phenyl-N4-(4-ethylcarbonylaminomethyl)phenyl-5-fluoro-2,4-pyrimidinediamine]",IC50,[1]; [4],834 nM
same,IC50,[2]; [5],300 nM
CCC(=O)NS(=O)(=O)c1cccc(Nc2ncc(F)c(Nc3ccc(OCc4nc(C)no4)cc3)n2)c1 [Compound I-264],IC50,[1]; [4],15000 nM
same,IC50,[2]; [5],599 nM
"Cc1ccc(Nc2ncc(F)c(Nc3ccc(OCC#N)cc3)n2)cc1S(=O)(=O)NC(=O)C(C)C [Compound I-39, N4-(4-Cyanomethyleneoxy)phenyl-5-fluoro-N2-(3-isobutyrylaminosulfonyl-4-methyl)phenyl-2,4-pyrimidinediamine sodium Salt]",IC50,"[1]; U937 cells stimulated with IFNγ, sodium Salt",9320 nM
same,IC50,"[2]; Ramos B-cell line stimulated with IL-4, CD23 expression by FACS, sodium salt",841 nM
"Cc1cc(COc2ccc(Nc3nc(Nc4cccc(S(=O)(=O)N(Cc5oc(=O)oc5C(C)(C)C)Cc5oc(=O)oc5C(C)(C)C)c4)ncc3F)cc2)no1 [Compound I-249, N2-{3-[N-N-Di-[(5-t-Butyl-1,3-dioxolene-2-one-4-yl)methylene]]aminosulfonylphenyl}-5-fluoro-N4-[4-(5-methylisoxazol-3-yl)methyleneoxyphenyl]-2,4-pyrimidinediamine]",IC50,[1]; [4],11000 nM
same,IC50,[2]; [5],512 nM
"NC(=O)NCc1cccc(Nc2nc(Nc3ccc(S(N)(=O)=O)cc3)ncc2F)c1 [III-113, N4-(3-aminocarbonylaminomethyl)phenyl-N2-(4-aminosulfonyl)phenyl-5-fluoro-2,4-pyrimidinediamine]",IC50,[1]; [4],345 nM
same,IC50,[2]; [6],1030 nM
"Cc1ccc(Nc2ncc(F)c(Nc3ccc(OCC#N)c(-c4ccn(CC#N)n4)c3)n2)cc1S(N)(=O)=O [Compound I-54, N2-(3-Aminosulfonyl-4-methylphenyl]-N4-[4-cyanomethoxy-3-(1-cyanomethylpyrazol-3-yl)phenyl]-5-fluoro-2,4-pyrimidinediamine]",IC50,"[1]; Homo sapiens, U-937, U937 cells stimulated with IFNγ",7160 nM
same,IC50,[2]; [7],277 nM
"Cc1ccc(Nc2ncc(F)c(Nc3ccc4c(c3)N(Cc3ccccn3)C(=O)CO4)n2)cc1S(N)(=O)=O [Compound V-3, N2-(3-Aminosulphonyl-4-methylphenyl)-5-fluoro-N4-[3-oxo-4-(2-pyridylmethy)-benz[1,4]oxazin-6-yl]-2,4-pyrimidinediamine]",IC50,[1]; [4],13700 nM
same,IC50,[2]; [6],664 nM
"CNS(=O)(=O)c1cc(Nc2ncc(F)c(Nc3ccc(OCc4ccccn4)cc3)n2)ccc1C [Compound I-161, 5-Fluoro-N2-[3-(N-methylaminosulfony)-4-methylphenyl]-5-fluoro-N4-[4-(2-pyridinyl)methyleneoxyphenyl]-2,4-pyrimidinediamine]",IC50,[1]; [4],2410 nM
same,IC50,[2]; [5],314 nM
"NS(=O)(=O)c1ccc(Nc2ncc(F)c(NCCc3ccc(-c4ccncc4)cc3)n2)cc1 [III-79, N2-(4-Aminosulfonylphenyl)-5-fluoro-N4-[4-(4-pyridinyl)phenethyl]-2,4-pyrimidinediamine]",IC50,[3]; [8],967 nM
same,IC50,[2]; [7],169 nM
"Cc1nccn1Cc1ccc(Nc2nc(Nc3ccc(S(N)(=O)=O)cc3)ncc2F)cc1 [III-92, N2-(4-Aminosulfonylphenyl)-5-fluoro-N4-[4-(2-methyl-1-imidazolylmethyl)phenyl]-2,4-pyrimidinediamine]",IC50,[3]; [9],1900 nM
same,IC50,[2]; [6],323 nM
"CNC(=O)COc1ccc(Nc2nc(Nc3ccc(Cl)c(S(N)(=O)=O)c3)ncc2F)cc1Cl [Compound I-152, N2-(3-Aminosulfonyl-4-chlorophenyl)-N4-(3-chloro-4-methylaminocarbonylmethoxyphenyl)-5-fluoro-2,4-pyrimidinediamine]",IC50,[3]; [8],1540 nM
same,IC50,[2]; [7],302 nM
"CCCN(Cc1ccc(Nc2nc(Nc3ccc(C)c(S(N)(=O)=O)c3)ncc2F)cc1)C(N)=O [III-127, N2-(3-aminosulfonyl-4-methyl)phenyl-N4-[4-(N-carbamoyl-N-propyl)aminomethyl]phenyl-5-fluoro-2,4-pyrimidinediamine]",IC50,[3]; [9],612 nM
same,IC50,[2]; [6],198 nM
"COc1ccc(Nc2nc(Nc3cc(C)c(OC)c(S(N)(=O)=O)c3)ncc2F)cc1Cl [VI-30, N2-(3-Aminosulfonyl-4-methoxy-5-methylphenyl)-N4-(3-chloro-4-methoxyphenyl)-5-fluoro-2,4-pyrimidinediamine]",IC50,[3]; [10],170 nM
same,IC50,[2]; [11],13.2 nM
"CC(C)(C)OC(=O)NC1CCOc2ccc(Nc3nc(Nc4ccc(S(N)(=O)=O)cc4)ncc3F)cc21 (centres unmarked) [VII-59, N2-(4-Aminosulfonylphenyl)-N4-(4-N-tert-butoxycarbonylamino-3,4-dihydro-2H-1-benzopyran-6-yl)-5-fluoro-2,4-pyrimidinediamine]",IC50,[3]; [9],2990 nM
same,IC50,[2]; [6],831 nM
"CNC(=O)COc1ccc(Nc2nc(Nc3cccc(S(N)(=O)=O)c3)ncc2F)cc1Cl [Compound I-147, N2-(3-Aminosulfonylphenyl)-N4-(3-chloro-4-methylaminocarbonylmethoxyphenyl)-5-fluoro-2,4-pyrimidinediamine]",IC50,[3]; [8],174 nM
same,IC50,[2]; [7],79.9 nM
"NS(=O)(=O)c1cc(Nc2ncc(F)c(Nc3ccc(OC(F)(F)F)cc3)n2)ccc1Cl [VI-42, N2-(3-Aminosulfonyl-4-chlorophenyl)-5-fluoro-N4-(4-trifluoromethoxyphenyl)-2,4-pyrimidinediamine]",IC50,[3]; [10],6170 nM
same,IC50,[2]; [11],452 nM
"NS(=O)(=O)c1cc(Nc2ncc(F)c(Nc3cccc4cccnc34)n2)ccc1F [VII-79, N2-(3-Aminosulfonyl-4-fluorophenyl)-5-fluoro-N4-(quinolin-8-yl)-2,4-pyrimidinediamine]",IC50,[3]; [10],3200 nM
same,IC50,[2]; [11],206 nM
"CNC(=O)COc1ccc(Nc2nc(Nc3ccc(C)c(S(N)(=O)=O)c3)ncc2F)cc1Cl [Compound I-148, N2-(3-Aminosulfonyl-4-methylphenyl)-N4-(3-chloro-4-methylaminocarbonylmethoxyphenyl)-5-fluoro-2,4-pyrimidinediamine]",IC50,[3]; [8],240 nM
same,IC50,[2]; [7],61.2 nM
"Cc1ccc(Nc2ncc(F)c(Nc3ccc4ccccc4n3)n2)cc1S(N)(=O)=O [VII-64, N2-(3-Aminosulfonyl-4-methylphenyl)-5-fluoro-N4-(quinolin-2-yl)-2,4-pyrimidinediamine]",IC50,[3]; [10],3810 nM
same,IC50,[2]; [11],363 nM
